Data reported in US4048334A, “Active derivatives of methylamino in therapeutic compositions and methods of use” (priority 1974, dated 1977).
“Also recorded” adds a separate entry of the source.

Assays:
[1] = test system: neuroleptic-induced catatonia; test: Suppression of neuroleptic-induced catatonia (curative treatment, prochlorperazine); format: in vivo, rat (male, OFA strain); details: for catatonia score (5 rats per batch): 5 mg/kg oral
Method: b. Suppression of neuroleptic-induced catatonia
Batches of 5 male rats of the OFA strain were given 12.5 mg/kg of prochlorperazine by intraperitoneal route. Fifty-five minutes later, an oral dose in aqueous solution of the compound to be studied was administered to all the animals with the exception of the control group. The progress of the catatonia was noted following the same scale as that used in the tests described above.

[2] = test system: isolated duodenum of the rat; test: MAGNUS test: inhibition of acetylcholine spasm (cholinolytic / spasmolytic activity in vitro)
Excerpt: This test consists in determining the dose of acetylcholine which, when added to the bath, provokes spasm of the isolated duodenum of the rat. The next step consists in determining the dose of the compound under study which, when added to the bath 30 seconds before the acetylcholine, reduces the spasm.

[3] = test system: peripheral noradrenergic phenomena (arterial pressure, nictitating membrane); test: Influence on peripheral noradrenergic phenomena (norepinephrine, arterial pressure and nictitating membrane)
[4] = test system: catalepsy; test: Inhibition of catalepsy (crossing of homolateral paws, prochlorperazine); format: in vivo, rat; details: 5 mg/kg oral, 30 min before prochlorperazine i.p., 3 hours after
Method: Additional trials were carried out on rats with Compound 1 and amantadine. These trials involved catalepsy as evidenced by the crossing of the animals' homolateral paws.

[5] = test system: reserpine-induced and neuroleptic-induced catatonia and catalepsy; test: Central noradrenergic and dopaminergic properties (general statement); details: in vivo
Excerpt: These latter properties manifest themselves by an inhibitory action on reserpine-induced and neuroleptic-induced catatonia and catalepsy.

[6] = test system: reserpine-induced catatonia; test: Inhibition of reserpine-induced catatonia; format: in vivo, rat (male, OFA strain)
Method: 1. Inhibition of reserpine-induced catatonia
After sufficient doses of reserpine have been administered to the rat, a series of symptoms occur, more particularly ptosis, catatonia and a drop in central temperature. These symptoms are caused by the depletion of the intragranular reserve pool of boigenetic amines at the synaptic terminals.
An oral dose of the compound to be studied in aqueous solution was administered to batches of 10 male rats of the OFA strain weighing about 150 to 200 g. Thirty minutes later a dose of 5 mg/kg of reserpine was given by intraperitoneal route. Three hours after the injection of reserpine, the animals were suspended by the four paws to a horizontally stretched wire fixed at 15 cm from the ground. The catatonic animals were those which maintained the position so given for at least 30 seconds. […] The maximum score was therefore 10 per batch. An identical trial was undertaken with control animals which received reserpine but none of the compounds being studied.

[7] = Emetic action; format: in vivo; details: dog, any dose
Excerpt: Furthermore, the compounds of the invention have no emetic action in the dog at any doses and are not cholinolytic agents.

[8] = test system: electrocardiogram; test: Effect on the electrocardiogram; format: in vivo; details: dog, in vivo; listed as preferred compound of the invention
[9] = test system: reserpine-induced catatonia; test: Suppression of reserpine-induced catatonia (curative treatment); format: in vivo, rat (male, OFA strain); design: key to catatonia score (maximum 5 per batch): number of animals (of 5) still in catatonia; max 5 per batch
Method: a. Suppression of reserpine-induced catatonia
Batches of 5 male rats of the OFA strain, weighing 150 to 200 g were given 5 mg/kg of reserpine by intraperitoneal route. One hour and 45 minutes later, namely when the animals were in a state of catatonia, an aqueous dose of the compound to be studied was administered by oral route to all the animals with the exception of the control group.
The progress of the catatonia was then noted following the scale used in the tests described hereabove.
The maximum score was thus 5 per batch which means that all the animals of the batch were considered to be still in a state of catatonia.

[10] = test system: neuroleptic-induced catatonia; test: Inhibition of neuroleptic-induced catatonia (prochlorperazine); format: in vivo, rat (male, OFA strain)
Method: 2. Inhibition of neuroleptic-induced catatonia
The blocking of dopaminergic receptors by neuroleptics in the extra-pyramidal system induces catatonia in the rat. Catatonia is differentiated from sedative properties by means of the test used hereabove for reserpine-induced catatonia. The same system of scoring was also employed in the present case.
An oral dose of the compound to be studied in aqueous solution was administered to batches of 10 male rats of the OFA strain weighing about 150 to 200 g. […] Three hours after the injection of this latter compound, catatonia was measured. An identical trial was also carried out with control animals which received prochlorperazine but none of the compounds under study.
The scoring system, used was that given hereabove in Table I.

[11] = Spasmolytic / cholinolytic (anticholinergic) activity in vivo or unspecified; details: at antiparkinsonian doses well below the toxic dose
[12] = in vivo; details: mouse, mice, oral, aqueous solution, 10 days observation
[13] = SPERBER et al., J. Amer. Chem. Soc., 71, 3352 (1949); cited from earlier work

## CCCC(N)(CCC)CCC [Compound 1]
[1]; 1h30 after prochlorperazine
  catatonia score (5 rats per batch): 3
[1]; 2h30 after prochlorperazine
  catatonia score (5 rats per batch): 0
[1]; 3h30 after prochlorperazine
  catatonia score (5 rats per batch): 0
[1]; 3h after prochlorperazine
  catatonia score (5 rats per batch): 0
[1]; 4h after prochlorperazine
  catatonia score (5 rats per batch): 0
[1]; 5h after prochlorperazine
  catatonia score (5 rats per batch): 0
[1]; 5 mg/kg versus amantadine 80 mg/kg
  rapidity of action against neuroleptic-induced catatonia: acts against neuroleptic-induced catatonia more rapidly than does a dose of 80 mg/kg of amantadine
[1]; versus amantadine
  times more active than amantadine, neuroleptic-induced catatonia, curative treatment: at least 16 times
[2]
  spasmolytic activity in vitro: very weak, in fact practically non-existent
[2]; 0.1 × 10^-3 g/ml of bath
  % of inhibition of the spasm: 0%
[2]; 0.1 × 10^-4 g/ml of bath
  % of inhibition of the spasm: 0%
[2]; 0.1 × 10^-5 g/ml of bath
  % of inhibition of the spasm: 0%
[2]; 0.2 × 10^-2 g/ml of bath
  % of inhibition of the spasm: 36%
[2]; 0.2 × 10^-6 g/ml of bath
  % of inhibition of the spasm: 0%
[2]; 0.5 × 10^-2 g/ml of bath
  % of inhibition of the spasm: 60%
[2]; in comparison with atropine
  cholinolytic activity in vitro: virtually non-existent
[3]; cumulative dose 0.1 mg/kg i.v.
  Contractile reaction of the nictitating membrane with electric stimulation: 15 mm
  Contractile reaction of the nictitating membrane without electric stimulation: 0 mm
  Increase in arterial pressure after injection of norepinephrine: 18 mm Hg
[3]; cumulative dose 1 mg/kg i.v.
  Contractile reaction of the nictitating membrane with electric stimulation: 16 mm
  Contractile reaction of the nictitating membrane without electric stimulation: 0 mm
  Increase in arterial pressure after injection of norepinephrine: 25 mm Hg
[3]; cumulative dose 3 mg/kg i.v.
  Contractile reaction of the nictitating membrane with electric stimulation: 17 mm
  Contractile reaction of the nictitating membrane without electric stimulation: 0 mm
  Increase in arterial pressure after injection of norepinephrine: 29 mm Hg
[3]; cumulative dose 5 mg/kg i.v.
  Contractile reaction of the nictitating membrane with electric stimulation: 16 mm
  Contractile reaction of the nictitating membrane without electric stimulation: 0 mm
  Increase in arterial pressure after injection of norepinephrine: 25 mm Hg
[3]; cumulative dose 10 mg/kg i.v.
  Contractile reaction of the nictitating membrane with electric stimulation: 12 mm
  Contractile reaction of the nictitating membrane without electric stimulation: 0 mm
  Increase in arterial pressure after injection of norepinephrine: 22 mm Hg
[3]; in vivo
  ganglioplegic action: is not a ganglioplegic agent
  potentiation of (peripheral) effects of norepinephrine: does not potentiate the effects either of exogenous norepinephrine or of endogenous norepinephrine
[3]; in vivo, listed as preferred compound of the invention
  potentiation of (peripheral) effects of norepinephrine: does not potentiate the peripheral effects of norepinephrine
[4]
  inhibition of the catalepsy: complete inhibition of the catalepsy
[5]
  degree of activity: marked degree of activity
[6]; 5 mg/kg oral, 30 min before reserpine 5 mg/kg i.p.
  Inhibition of reserpine-induced catatonia: 4 (100% inhibition of catatonia in comparison with the controls (namely a score of 0 per studied batch))
[6]; versus amantadine
  activity (dose) compared with amantadine, reserpine-induced catatonia: as active as amantadine but at a dose which is twenty times inferior to that of amantadine
[7]
  emetic action: devoid of emetic properties
[8]
  effect on the electrocardiogram: does not cause any undesirable effect on the electrocardiogram; also recorded: devoid of emetic properties and of undesirable side-effects on the electrocardiogram
[9]; 2.5 mg/kg oral, 2h15 after reserpine
  catatonia score (maximum 5 per batch): 3
[9]; 2.5 mg/kg oral, 2h30 after reserpine
  catatonia score (maximum 5 per batch): 2
[9]; 2.5 mg/kg oral, 3h30 after reserpine
  catatonia score (maximum 5 per batch): 0
[9]; 2.5 mg/kg oral, 2h after reserpine
  catatonia score (maximum 5 per batch): 4
[9]; 2.5 mg/kg oral, 3h after reserpine
  catatonia score (maximum 5 per batch): 0
[9]; 2.5 mg/kg oral, 4h after reserpine
  catatonia score (maximum 5 per batch): 0
[9]; 2.5 mg/kg oral, 5h after reserpine
  catatonia score (maximum 5 per batch): 0
[9]; 5 mg/kg oral, 2h15 after reserpine
  catatonia score (maximum 5 per batch): 1
[9]; 5 mg/kg oral, 2h30 after reserpine
  catatonia score (maximum 5 per batch): 0
[9]; 5 mg/kg oral, 3h30 after reserpine
  catatonia score (maximum 5 per batch): 0
[9]; 5 mg/kg oral, 2h after reserpine
  catatonia score (maximum 5 per batch): 5
[9]; 5 mg/kg oral, 3h after reserpine
  catatonia score (maximum 5 per batch): 0
[9]; 5 mg/kg oral, 4h after reserpine
  catatonia score (maximum 5 per batch): 0
[9]; 5 mg/kg oral, 5h after reserpine
  catatonia score (maximum 5 per batch): 0
[9]; 2.5 and 5 mg/kg oral versus amantadine 80 mg/kg
  rapidity of suppression of reserpine-induced catatonia: suppresses reserpine-induced catatonia more rapidly than a dose of 80 mg/kg of amantadine
[9]; versus amantadine
  times more active than amantadine, reserpine-induced catatonia, curative treatment: at least 32 times
[10]; 1 mg/kg
  Inhibition of the neuroleptic-induced catatonia: 70%
[10]; 5 mg/kg oral, 30 min before prochlorperazine 12.5 mg/kg i.p.
  Inhibition of the neuroleptic-induced catatonia: 4 (100% inhibition of catatonia in comparison with the controls (namely a score of 0 per studied batch))
[10]; versus amantadine
  activity compared with amantadine, neuroleptic-induced catatonia: twenty times more active than amantadine
[11]
  spasmolytic activity in vivo: non-existent
[12]
  LD50 at 240 h: 100 mg/kg
[13]
  spasmolytic activity and toxicity versus corresponding trialkylethylamines: less spasmolytic and more toxic than the corresponding trialkylethylamines
